Literature values as cited in US20240156825A1, “USE OF SELECTIVE VEGFR2 AND FGFR1 INHIBITORS” (Fountain Therapeutics Inc., priority 2022, published 2024).

Biological target: VEGFR2 (Homo sapiens, UniProt P35968)
Sequence (P35968 20-1356, species assumed): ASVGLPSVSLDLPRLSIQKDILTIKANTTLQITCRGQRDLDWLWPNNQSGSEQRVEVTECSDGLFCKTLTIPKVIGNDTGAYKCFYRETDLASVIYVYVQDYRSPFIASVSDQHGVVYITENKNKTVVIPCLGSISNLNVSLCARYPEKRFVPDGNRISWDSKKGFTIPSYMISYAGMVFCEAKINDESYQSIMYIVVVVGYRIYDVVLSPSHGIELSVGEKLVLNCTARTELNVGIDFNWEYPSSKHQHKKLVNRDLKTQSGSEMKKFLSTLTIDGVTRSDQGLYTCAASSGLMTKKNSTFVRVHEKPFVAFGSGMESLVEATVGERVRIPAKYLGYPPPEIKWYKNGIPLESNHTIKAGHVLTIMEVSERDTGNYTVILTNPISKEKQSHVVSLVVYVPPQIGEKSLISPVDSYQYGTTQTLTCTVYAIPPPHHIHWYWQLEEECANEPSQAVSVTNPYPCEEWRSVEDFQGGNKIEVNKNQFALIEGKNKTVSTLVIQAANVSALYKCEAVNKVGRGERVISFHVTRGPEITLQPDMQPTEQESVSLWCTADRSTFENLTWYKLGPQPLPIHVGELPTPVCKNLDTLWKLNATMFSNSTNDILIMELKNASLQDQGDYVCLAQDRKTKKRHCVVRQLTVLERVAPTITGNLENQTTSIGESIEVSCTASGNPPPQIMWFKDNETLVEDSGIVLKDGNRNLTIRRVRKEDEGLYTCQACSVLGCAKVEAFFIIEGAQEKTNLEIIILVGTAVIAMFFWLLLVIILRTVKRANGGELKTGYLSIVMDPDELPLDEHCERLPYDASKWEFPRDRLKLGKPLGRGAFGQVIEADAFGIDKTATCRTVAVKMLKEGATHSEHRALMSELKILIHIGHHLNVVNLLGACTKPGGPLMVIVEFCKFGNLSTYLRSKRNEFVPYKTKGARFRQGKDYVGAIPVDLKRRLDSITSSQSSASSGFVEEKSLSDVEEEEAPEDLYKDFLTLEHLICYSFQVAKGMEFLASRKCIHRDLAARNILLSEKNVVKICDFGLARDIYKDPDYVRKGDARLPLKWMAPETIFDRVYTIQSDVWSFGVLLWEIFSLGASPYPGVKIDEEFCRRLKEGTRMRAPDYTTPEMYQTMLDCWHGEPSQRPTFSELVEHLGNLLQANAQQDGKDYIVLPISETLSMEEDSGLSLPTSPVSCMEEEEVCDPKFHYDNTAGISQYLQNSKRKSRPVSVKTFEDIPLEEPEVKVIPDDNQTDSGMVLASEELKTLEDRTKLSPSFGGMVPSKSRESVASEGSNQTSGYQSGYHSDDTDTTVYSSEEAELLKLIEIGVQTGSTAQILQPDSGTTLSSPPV
Conditions: reported IC50 to VEGFR2; read-out: VEGFR2 IC50_μM; cited from earlier work
For Oc1cc(O)c2cc(O)c(-c3cc(O)c(O)c(O)c3)[o+]c2c1 [compound 68245], the IC50 is given as 5.09 nM.
For COc1cc2c(Nc3ccc(Br)cc3F)ncnc2cc1OCCn1ccnn1 [compound 5329032], the IC50 is given as 30 nM.

Test system: any gene target
Conditions: Table 2; lowest reported IC50 to any gene target; read-out: Min IC50_μM; cited from earlier work
For COc1cc(OC)cc(N(CC#Cc2cccc(CO)n2)c2ccc3ncc(-c4cnn(C)c4)nc3c2)c1 [compound 68208920], the IC50 is given as 46.8 nM.
In the case of CCn1cc(-c2cnc3ccc(N(CCNC)c4cc(OC)cc(OC)c4)cc3n2)cn1 [compound 68208927], the IC50 is listed as 3.55 nM.
For COc1cc(OC)cc(N(Cc2ncccn2)c2ccc3ncc(-c4cnn(C)c4)nc3c2)c1 [compound 68208969], the IC50 is listed as 8.13 nM.
For COc1cc(OC)cc(N(CCNC(C)C)c2ccc3ncc(-c4cnn(C5CCNCC5)c4)nc3c2)c1 [compound 68208989], the IC50 is listed as 2.88 nM.
For COc1cc(OC)cc(N(CCCN2CCC(N)C2)c2ccc3ncc(-c4cnn(C)c4)nc3c2)c1 (stereo not shown) [compound 68209028], the IC50 is given as 1.41 nM.
For COc1cc(OC)cc(N(CCN2CCCCC2)c2ccc3ncc(-c4cnn(C)c4)nc3c2)c1 [compound 68209029], the IC50 is listed as 2.24 nM.
For COc1cc(OC)cc(N(CCN(C)C(C)C)c2ccc3ncc(-c4cnn(C)c4)nc3c2)c1 [compound 68209043], the IC50 is given as 3.89 nM.
In the case of COc1cc(OC)cc(N(CCNC(C)C)c2ccc3ncc(-c4cnn(C)c4C)nc3c2)c1 [compound 68209154], the IC50 is given as 4.68 nM.
In the case of COc1cc(OC)cc(N(CCNCCO)c2ccc3ncc(-c4cnn(C)c4)nc3c2)c1 [compound 68209464], the IC50 is listed as 2.24 nM.
In the case of COc1cc(N(CCNC(C)C)c2ccc3ncc(-c4cnn(C)c4)nc3c2)cc2c1OCO2 [compound 68209505], the IC50 is listed as 2.88 nM.
In the case of COc1cc(OC)c(Cl)c(N(CCNC(C)C)c2ccc3ncc(-c4cnn(C)c4)nc3c2)c1Cl [compound 88888615], the IC50 is given as 9.12 nM.
For COc1cc(OC)cc(N(CCNC(C)C)c2ccc3ncc(-c4cnn(C)c4)nc3c2)c1 [compound 89447047], the IC50 is given as 1.74 nM.
In the case of COc1cc(OC)cc(N(CCN(Cc2ccc(N)cc2)C(C)C)c2ccc3ncc(-c4cnn(C)c4)nc3c2)c1 [compound 89447175], the IC50 is listed as 5.89 nM.
In the case of COc1cc(OC)cc(N(CCCN2C[C@@H](C)O[C@@H](C)C2)c2ccc3ncc(-c4cnn(C)c4)nc3c2)c1 [compound 89447204], the IC50 is given as 3.55 nM.
For COc1cc(OC)cc(N(CC#Cc2cc(C(N)=O)ccn2)c2ccc3ncc(-c4cnn(C)c4)nc3c2)c1 [compound 89447328], the IC50 is listed as 2.46 nM.
In the case of COc1cccnc1C#CCN(c1ccc2ncc(-c3cnn(C)c3)nc2c1)c1c(Cl)c(OC)cc(OC)c1Cl [compound 89447340], the IC50 is given as 5.89 nM.
For COc1cc(OC)cc(N(CC#Cc2cc(CO)ccn2)c2ccc3ncc(-c4cnn(C)c4)nc3c2)c1 [compound 89447343], the IC50 is given as 3.39 nM.
In the case of COc1cc(OC)cc(N(CC#Cc2nccnc2Cl)c2ccc3ncc(-c4cnn(C)c4)nc3c2)c1 [compound 89447345], the IC50 is given as 15.8 nM.
For COc1cc(OC)cc(N(CC#Cc2cc(N)ccn2)c2ccc3ncc(-c4cnn(C)c4)nc3c2)c1 [compound 89447499], the IC50 is listed as 2.95 nM.
For COc1cc(OC)cc(N(CCNC(C)C)c2ccc3ncc(-c4cnn(C)c4)nc3c2)c1 [compound 118014709], the IC50 is given as 2.29 nM.
In the case of C=CC(=O)N1CCN(CCCn2c(=O)c(-c3c(Cl)c(OC)cc(OC)c3Cl)cc3cnc(NC)nc32)CC1 [compound 118295624], the IC50 is listed as 1.3 nM.
For CNCCN(c1cc(OC)cc(OC)c1)c1ccc2ncc(-c3cnn(CC(=O)NC)c3)nc2c1 [compound 134131862], the IC50 is given as 2.4 nM.
For CNC(=O)Cn1cc(-c2cnc3ccc(N(CCNC(C)C)c4cc(OC)cc(OC)c4)cc3n2)cn1 [compound 134132789], the IC50 is given as 3.39 nM.
For CNCCN(c1cc(OC)cc(OC)c1)c1ccc2ncc(-c3cnn(C(C)C)c3)nc2c1 [compound 134133926], the IC50 is listed as 2.88 nM.
In the case of COc1cc(OC)cc(N(CCCN2[C@H](C)CC[C@@H]2C)c2ccc3ncc(-c4cnn(C)c4)nc3c2)c1 [compound 134135888], the IC50 is listed as 2.51 nM.
For COc1cc(OC)cc(N(CCNC(C)C)c2ccc3ncc(-c4c(C)nn(C)c4C)nc3c2)c1 [compound 134138098], the IC50 is listed as 10.7 nM.
For COc1cc(F)cc(N(CCCN2CCCC2)c2ccc3ncc(-c4cn[nH]c4)nc3c2)c1 [compound 134140310], the IC50 is given as 1.86 nM.
In the case of CNC1CCN(CCCN(c2cc(OC)cc(OC)c2)c2ccc3ncc(-c4cnn(C)c4)nc3c2)C1 (stereo not shown) [compound 134140450], the IC50 is listed as 2.24 nM.
In the case of COc1cc(OC)cc(N(CCNC(C)C)c2ccc3ncc(-c4cnn(CC5CCOCC5)c4)nc3c2)c1 [compound 134141677], the IC50 is listed as 2.19 nM.
For COc1cc(OC)cc(N(CCCN2CCC(F)(F)C2)c2ccc3ncc(-c4cn[nH]c4)nc3c2)c1 [compound 134142457], the IC50 is given as 10.5 nM.
For COc1cc(OC)cc(N(CCNC(C)C)c2ccc3ncc(-c4cnn(C5CCN(C)CC5)c4)nc3c2)c1 [compound 134142615], the IC50 is given as 2.95 nM.
For COc1cc(OC)cc(N(CCCN2CCCC2)c2ccc3ncc(-c4cnn(CCO)c4)nc3c2)c1 [compound 134144550], the IC50 is given as 1.91 nM.
For COc1cc(OC)c(C)c(N(CCCN2CCCC2)c2ccc3ncc(-c4cnn(C)c4)nc3c2)c1 [compound 134145340], the IC50 is given as 3.55 nM.
In the case of COc1cc(OC)cc(N(CCN2CCC[C@H]2C)c2ccc3ncc(-c4cnn(C)c4)nc3c2)c1 [compound 134145938], the IC50 is given as 1.99 nM.
For COc1cc(OC)cc(N(CCN2CCCCC2C)c2ccc3ncc(-c4cnn(C)c4)nc3c2)c1 (stereo not shown) [compound 134146514], the IC50 is listed as 2.51 nM.
For COc1cc(OC)cc(N(CCCN2CCC[C@H]2C)c2ccc3ncc(-c4cnn(C)c4)nc3c2)c1 [compound 134146811], the IC50 is given as 2.14 nM.
For COc1cc(OC)c(C)c(N(CCNC(C)C)c2ccc3ncc(-c4cnn(C)c4)nc3c2)c1 [compound 134147170], the IC50 is listed as 6.46 nM.
For COc1cc(OC)cc(N(CCNC(C)C)c2ccc3ncc(-c4cn[nH]c4)nc3c2)c1 [compound 134148952], the IC50 is given as 3.39 nM.
In the case of COc1cc(OC)cc(N(CCN2CCCC2)c2ccc3ncc(-c4cn[nH]c4)nc3c2)c1 [compound 134153401], the IC50 is listed as 2.46 nM.
In the case of COc1ccc(Cl)c(N(CCNC(C)C)c2ccc3ncc(-c4cnn(C)c4)nc3c2)c1 [compound 134153603], the IC50 is given as 3.71 nM.
For COc1cc(F)cc(N(CCNC(C)C)c2ccc3ncc(-c4cn[nH]c4)nc3c2)c1 [compound 134153940], the IC50 is listed as 2.09 nM.
For COc1cc(OC)cc(N(CCCN2CCC(N3C[C@@H](C)O[C@@H](C)C3)C2)c2ccc3ncc(-c4cnn(C)c4)nc3c2)c1 (stereo partly shown) [compound 134155786], the IC50 is given as 4.57 nM.
For COc1cc(OC)cc(N(CCN2CCCC2)c2ccc3ncc(-c4cnn(C)c4)nc3c2)c1 [compound 134156523], the IC50 is listed as 1.78 nM.
For COc1cc(OC)cc(N(CCNC(C)C)c2ccc3ncc(-c4cn[nH]c4)nc3c2)c1 [compound 134157816], the IC50 is given as 2.82 nM.
For COc1cc(OC)cc(N(CCN2CCC(N)C2)c2ccc3ncc(-c4cnn(C)c4)nc3c2)c1 (stereo not shown) [compound 134157853], the IC50 is given as 1.99 nM.

Same assay, conditions: lowest reported IC50 to any gene target; read-out: Min IC50_μM; cited from earlier work
For COc1cc(OC)cc(N(CCCc2cc(C)ccn2)c2ccc3ncc(-c4cnn(C)c4)nc3c2)c1 [compound 68208924], the IC50 is listed as 10.7 nM.
For COc1cc(OC)cc(N(CCN2CCC(N(C)C)CC2)c2ccc3ncc(-c4cnn(C)c4)nc3c2)c1 [compound 68209057], the IC50 is listed as 5.13 nM.
In the case of COc1cc(OC)cc(N(CCN2CCC(C(C)(C)O)CC2)c2ccc3ncc(-c4cnn(C)c4)nc3c2)c1 [compound 68209085], the IC50 is given as 3.89 nM.
For CNC[C@H](O)CN(c1cc(OC)cc(OC)c1)c1ccc2ncc(-c3cnn(C)c3)nc2c1 [compound 68209125], the IC50 is listed as 1.78 nM.
In the case of CCOC(=O)C1CCN(CCN(c2cc(OC)cc(OC)c2)c2ccc3ncc(-c4cnn(C)c4)nc3c2)CC1 [compound 68209310], the IC50 is given as 3.39 nM.
In the case of COc1cc(OC)cc(N(CC(O)CN2CCCCC2)c2ccc3ncc(-c4cnn(C)c4)nc3c2)c1 (stereo not shown) [compound 68209482], the IC50 is listed as 2.95 nM.
In the case of COc1cc(OC)cc(N(CCN2[C@@H](C)CC[C@@H]2C)c2ccc3ncc(-c4cnn(C)c4)nc3c2)c1 [compound 89447247], the IC50 is given as 3.8 nM.
For COc1cc(OC)cc(N(CCN2CCN(C(=O)C3CC3)CC2)c2ccc3ncc(-c4cnn(C)c4)nc3c2)c1 [compound 89447346], the IC50 is given as 7.76 nM.
For COc1cc(OC)cc(N(CCCN2[C@H](C)CC[C@@H]2C)c2ccc3ncc(-c4cnn(C)c4)nc3c2)c1 [compound 89447423], the IC50 is given as 3.24 nM.
In the case of COc1cc(OC)cc(N(CC#Cc2cnccn2)c2ccc3ncc(-c4cnn(C)c4)nc3c2)c1 [compound 89447472], the IC50 is listed as 17.8 nM.
In the case of COc1cc(OC)cc(N(CC#CC2(O)CCNCC2)c2ccc3ncc(-c4cnn(C)c4)nc3c2)c1 [compound 89447547], the IC50 is listed as 7.08 nM.
In the case of COc1cccc(N(CCNC(C)C)c2ccc3ncc(-c4cnn(C)c4)nc3c2)c1 [compound 134138612], the IC50 is given as 7.24 nM.
In the case of CNCC(O)CN(c1cc(OC)cc(OC)c1)c1ccc2ncc(-c3cnn(C)c3)nc2c1 (stereo not shown) [compound 134149546], the IC50 is listed as 2.82 nM.
For COc1cc(OC)cc(N(CCCN2CCCC2(C)C)c2ccc3ncc(-c4cnn(C)c4)nc3c2)c1 [compound 134151320], the IC50 is given as 1.91 nM.
For COc1cc(OC)cc(N(CCN2CCC(O)C2)c2ccc3ncc(-c4cnn(C)c4)nc3c2)c1 (stereo not shown) [compound 134154939], the IC50 is listed as 1.82 nM.
In the case of COc1ccc(OC)c(N(CCCN2CCCC2)c2ccc3ncc(-c4cnn(C)c4)nc3c2)c1 [compound 134157453], the IC50 is listed as 38 nM.
In the case of CC(C)(C)NC(=O)Nc1ccc2[nH]nc(-c3nc4ccc(N5CCC(N6CCCCC6)CC5)cc4[nH]3)c2c1 [compound 135819982], the IC50 is listed as 1 nM.

Same assay, conditions: next lowest IC50 value to any gene target; read-out: Min IC50_μM; cited from earlier work
For Oc1cc(O)c2cc(O)c(-c3cc(O)c(O)c(O)c3)[o+]c2c1 [compound 68245], the IC50 is given as 6.27 nM.
For COc1cc2nccc(Oc3ccc(NC(=O)Nc4cc(C)on4)c(Cl)c3)c2cc1OC [compound 118737468], the IC50 is given as 3.26 nM.
For c1ccc(-c2cnc3c(Nc4ccc(N5CCCCC5)cc4)cncc3n2)cc1 [compound 127030424], the IC50 is listed as 2340 nM.
For CCN(Cc1ccccc1)c1nc(O)nc(Nc2ccc3ncsc3c2)n1 [compound 135509841], the IC50 is given as 400 nM.
For CC(C)n1nc(-c2ccc3cc(O)ccc3c2)c2c(N)ncnc21 [compound 135947979], the IC50 is given as 20 nM.
In the case of COC(=O)c1ccc2c(C(=Nc3ccc(N4CCC(CN5CCN(C)CC5)C4=O)cc3)c3ccccc3)c(O)[nH]c2c1 (stereo not shown) [compound 136299423], the IC50 is listed as 45 nM.
